Drawing on US9593149B2, “Amylin and calcitonin receptor agonist” (Novo Nordisk A/S, priority 2014, dated 2017), this text covers Solubility and solubility for six molecules.

SMILES strings stand for the structures. Converted amounts (≈) assume the structure as drawn. Numbered stars: 1 amine (or outer) side, 2 acyl side, 3 side chain; on linkers, the order of the positions; unused ones are H or OH. Peptide text beside a SMILES is read from it. * marks the point of attachment. C20 diacid = O=C(O)CCCCCCCCCCCCCCCCCCC(=O)*; γGlu = O=C(O)[C@H](CCC(=O)[*:2])N[*:1]

The series is described as follows: Assay (IV) determination of solubility. It is filed as physicochemical. The method, then:
Assay (IV)—Determination of Solubility
The mimylin peptide was dissolved in water at ˜500 nmol/ml and mixed 1:1 with a series of buffers (100 mM glycylglycine pH 3.0, 100 mM glycylglycine pH 4.0, 100 mM glycylglycine pH 5.0, 100 mM bistrispropane pH 6.0, 100 mM bistrispropane pH 6.5, 100 mM bistrispropane pH 7.0, 100 mM bistrispropane pH 7.5, 100 mM bistrispropane pH 8.0).

Consider `CC(C)C[C@H](NC(=O)[C@H](C)NC(=O)[C@H](C)NC(=O)[C@@H](NC(=O)[C@H](CO)NC(=O)[C@H](CC(C)C)NC(=O)[C@H](CCC(=O)O)NC(=O)[C@H](CO)NC(=O)[C@H](C)N)[C@@H](C)O)C(=O)NCC(=O)N[C@@H](CCCNC(=N)N)C(=O)N[C@@H](CC(C)C)C(=O)N[C@@H](CO)C(=O)N[C@@H](C)C(=O)N[C@@H](CCC(=O)O)C(=O)N[C@@H](CC(C)C)C(=O)N[C@@H](Cc1cnc[nH]1)C(=O)N[C@@H](CCC(=O)O)C(=O)N[C@@H](CC(C)C)C(=O)N[C@@H](C)C(=O)N[C@H](C(=O)N[C@@H](CC(C)C)C(=O)N1CCC[C@H]1C(=O)N[C@@H](CCCNC(=N)N)C(=O)N[C@H](C(=O)N[C@@H](CCCCNC(=O)CC[C@H](NC(=O)CCCCCCCCCCCCCCCCCCC(=O)O)C(=O)O)C(=O)N[C@H](C(=O)NCC(=O)N[C@@H](CO)C(=O)NCC(=O)N[C@@H](CO)C(=O)N1CCC[C@H]1C(N)=O)[C@@H](C)O)[C@@H](C)O)[C@@H](C)O` [compound 55, [des1, 27K(C20 diacid-gGlu), 30S, 31G]mimylin], for which the Solubility result is, setting by setting: (pH 3.0) “≧200 μM”; (pH 4.0) “≧200 μM”; (pH 5.0) “≧200 μM”; (pH 6.0) “≧200 μM”; (pH 6.5) “≧200 μM”; (pH 7.0) “≧200 μM”. The Solubility result is listed as “≧200 μM” (pH 7.5) and “≧200 μM” (pH 8.0).
On to `CC(C)C[C@H](NC(=O)CNC(=O)[C@H](CO)NC(=O)[C@H](C)NC(=O)CC[C@H](NC(=O)CCCCCCCCCCCCCCCCCCC(=O)O)C(=O)O)C(=O)N[C@@H](CO)C(=O)N[C@H](C(=O)N[C@@H](C)C(=O)N[C@H](C(=O)N[C@@H](CC(C)C)C(=O)NCC(=O)N[C@@H](CCCNC(=N)N)C(=O)N[C@@H](CC(C)C)C(=O)N[C@@H](CO)C(=O)N[C@@H](CCC(N)=O)C(=O)N[C@@H](CCC(=O)O)C(=O)N[C@@H](CC(C)C)C(=O)N[C@@H](Cc1cnc[nH]1)C(=O)N[C@@H](CCC(=O)O)C(=O)N[C@@H](CC(C)C)C(=O)N[C@@H](CCC(N)=O)C(=O)N[C@H](C(=O)N[C@@H](Cc1ccc(O)cc1)C(=O)N1CCC[C@H]1C(=O)N[C@@H](CCCNC(=N)N)C(=O)N[C@H](C(=O)N[C@@H](CCC(=O)O)C(=O)N[C@H](C(=O)NCC(=O)N[C@@H](CO)C(=O)N[C@@H](C)C(=O)N[C@H](C(=O)N[C@@H](Cc1ccc(O)cc1)C(N)=O)[C@@H](C)O)[C@@H](C)O)[C@@H](C)O)[C@@H](C)O)C(C)C)[C@@H](C)O` [compound 122, [N-terminal(C20 diacid-gGlu), des1, 4G, 9V, 15Q, 21Q, 23Y, 30S, 31A, 32T, 33Y]mimylin] ({C20 diacid-γGlu}-ASGLSTAVLGRLSQELHELQTYPRTETGSATY-NH2), for which the Solubility result is on record as “≧200 μM” (pH 3.0); “≧200 μM” (pH 4.0); “≧200 μM” (pH 6.0); “≧200 μM” (pH 6.5); “≧200 μM” (pH 7.0); “≧200 μM” (pH 7.5). Also, the Solubility entry (pH 8.0) is reported as “≧200 μM”. Where the note is “pH 5.0”, this molecule had a solubility at 18 h of 32 µM (≈ 124 µg/mL).
In the case of `CC(C)C[C@H](NC(=O)[C@H](C)NC(=O)[C@H](C)NC(=O)[C@@H](NC(=O)[C@H](CO)NC(=O)[C@H](CC(C)C)NC(=O)[C@H](CCC(=O)O)NC(=O)[C@H](CO)NC(=O)[C@H](C)NC(=O)[C@H](CCC(=O)O)NC(=O)CC[C@H](NC(=O)CCCCCCCCCCCCCCCCCCC(=O)O)C(=O)O)[C@@H](C)O)C(=O)NCC(=O)N[C@@H](CCCNC(=N)N)C(=O)N[C@@H](CC(C)C)C(=O)N[C@@H](CO)C(=O)N[C@@H](C)C(=O)N[C@@H](CCC(=O)O)C(=O)N[C@@H](CC(C)C)C(=O)N[C@@H](Cc1cnc[nH]1)C(=O)N[C@@H](CCC(=O)O)C(=O)N[C@@H](CC(C)C)C(=O)N[C@@H](C)C(=O)N[C@H](C(=O)N[C@@H](Cc1ccc(O)cc1)C(=O)N1CCC[C@H]1C(=O)N[C@@H](CCCNC(=N)N)C(=O)N[C@H](C(=O)N[C@@H](CCC(=O)O)C(=O)N[C@H](C(=O)NCC(=O)N[C@@H](CO)C(=O)NCC(=O)N[C@@H](CO)C(=O)N1CCC[C@H]1C(N)=O)[C@@H](C)O)[C@@H](C)O)[C@@H](C)O` [compound 34, [N-terminal(C20 diacid-gGlu), 23Y, 30S, 31G]mimylin] ({C20 diacid-γGlu}-EASELSTAALGRLSAELHELATYPRTETGSGSP-NH2), the Solubility entry by setting is: (pH 3.0) “≧200 μM”; (pH 4.0) “≧200 μM”; (pH 5.0) “≧200 μM”; (pH 6.0) “≧200 μM”; (pH 6.5) “≧200 μM”; (pH 7.0) “≧200 μM”. For the same molecule, the Solubility result is “≧200 μM” (pH 7.5) and “≧200 μM” (pH 8.0).
As for `CC(C)C[C@H](NC(=O)[C@H](CO)NC(=O)CNC(=O)[C@H](CO)NC(=O)CNC(=O)[C@@H](NC(=O)[C@H](CCC(=O)O)NC(=O)[C@@H](NC(=O)[C@H](CCCNC(=N)N)NC(=O)[C@@H]1CCCN1C(=O)[C@H](CC(C)C)NC(=O)[C@@H](NC(=O)[C@H](C)NC(=O)[C@H](CC(C)C)NC(=O)[C@H](CCC(=O)O)NC(=O)[C@H](Cc1cnc[nH]1)NC(=O)[C@H](CC(C)C)NC(=O)[C@H](CCC(=O)O)NC(=O)[C@H](C)NC(=O)[C@H](CO)NC(=O)[C@H](CC(C)C)NC(=O)[C@H](CCCNC(=N)N)NC(=O)CNC(=O)[C@H](CC(C)C)NC(=O)[C@H](C)NC(=O)[C@H](C)NC(=O)[C@@H](NC(=O)[C@H](CO)NC(=O)[C@H](CC(C)C)NC(=O)[C@H](CCC(=O)O)NC(=O)[C@H](CO)NC(=O)[C@H](C)NC(=O)CC[C@H](NC(=O)CCCCCCCCCCCCCCCCCCC(=O)O)C(=O)O)[C@@H](C)O)[C@@H](C)O)[C@@H](C)O)[C@@H](C)O)C(N)=O` [compound 62, [N-terminal(C20 diacid-gGlu), des1, 30S, 31G, 33L]mimylin] ({C20 diacid-γGlu}-ASELSTAALGRLSAELHELATLPRTETGSGSL-NH2), the Solubility entry is, setting by setting: (pH 3.0) “≧200 μM”; (pH 4.0) “≧200 μM”; (pH 5.0) “≧200 μM”; (pH 6.0) “≧200 μM”; (pH 6.5) “≧200 μM”; (pH 7.0) “≧200 μM”. The Solubility entry is “≧200 μM” (pH 7.5) and “≧200 μM” (pH 8.0).
Regarding `CC(C)C[C@H](NC(=O)CNC(=O)[C@H](CO)NC(=O)[C@H](C)NC(=O)CC[C@H](NC(=O)CCCCCCCCCCCCCCCCCCC(=O)O)C(=O)O)C(=O)N[C@@H](CO)C(=O)N[C@H](C(=O)N[C@@H](C)C(=O)N[C@@H](C)C(=O)N[C@@H](CC(C)C)C(=O)NCC(=O)N[C@@H](CCCNC(=N)N)C(=O)N[C@@H](CC(C)C)C(=O)N[C@@H](CO)C(=O)N[C@@H](CCC(N)=O)C(=O)N[C@@H](CCC(=O)O)C(=O)N[C@@H](CC(C)C)C(=O)N[C@@H](Cc1cnc[nH]1)C(=O)N[C@@H](CCC(=O)O)C(=O)N[C@@H](CC(C)C)C(=O)N[C@@H](CCC(N)=O)C(=O)N[C@H](C(=O)N[C@@H](Cc1ccc(O)cc1)C(=O)N1CCC[C@H]1C(=O)N[C@@H](Cc1cnc[nH]1)C(=O)N[C@H](C(=O)N[C@@H](CCC(=O)O)C(=O)N[C@H](C(=O)NCC(=O)N[C@@H](CO)C(=O)NCC(=O)N[C@H](C(=O)N[C@@H](Cc1ccc(O)cc1)C(N)=O)[C@@H](C)O)[C@@H](C)O)[C@@H](C)O)[C@@H](C)O)[C@@H](C)O` [compound 117, [N-terminal(C20 diacid-gGlu), des1, 4G, 15Q, 21Q, 23Y, 25H, 30S, 31G, 32T, 33Y]mimylin] ({C20 diacid-γGlu}-ASGLSTAALGRLSQELHELQTYPHTETGSGTY-NH2), the Solubility entry runs as follows: (pH 3.0) “≧200 μM”; (pH 4.0) “≧200 μM”; (pH 6.0) “≧200 μM”; (pH 6.5) “≧200 μM”; (pH 7.0) “≧200 μM”; (pH 7.5) “≧200 μM”. Moreover, the Solubility entry (pH 8.0) is listed as “≧200 μM”. Moreover, the solubility at 18 h (pH 5.0) is reported as 38 µM (≈ 146 µg/mL).
For `CC(C)C[C@H](NC(=O)CNC(=O)[C@H](CO)NC(=O)[C@H](C)NC(=O)CC[C@H](NC(=O)CCCCCCCCCCCCCCCCCCC(=O)O)C(=O)O)C(=O)N[C@@H](CO)C(=O)N[C@H](C(=O)N[C@@H](CC(C)C)C(=O)N[C@H](C(=O)N[C@@H](CC(C)C)C(=O)NCC(=O)N[C@@H](CCCNC(=N)N)C(=O)N[C@@H](CC(C)C)C(=O)N[C@@H](CO)C(=O)N[C@@H](CCC(N)=O)C(=O)N[C@@H](CCC(=O)O)C(=O)N[C@@H](CC(C)C)C(=O)N[C@@H](Cc1cnc[nH]1)C(=O)N[C@@H](CCC(=O)O)C(=O)N[C@@H](CC(C)C)C(=O)N[C@@H](CCC(N)=O)C(=O)N[C@H](C(=O)N[C@@H](Cc1ccc(O)cc1)C(=O)N1CCC[C@H]1C(=O)N[C@@H](CCCNC(=N)N)C(=O)N[C@H](C(=O)N[C@@H](CCC(=O)O)C(=O)N[C@H](C(=O)NCC(=O)N[C@@H](CO)C(=O)N[C@@H](CCC(N)=O)C(=O)N[C@H](C(=O)N[C@@H](Cc1ccc(O)cc1)C(N)=O)[C@@H](C)O)[C@@H](C)O)[C@@H](C)O)[C@@H](C)O)C(C)C)[C@@H](C)O` [compound 126, [N-terminal(C20 diacid-gGlu), des1, 4G, 8L, 9V, 15Q, 21Q, 23Y, 30S, 31Q, 32T, 33Y]mimylin] ({C20 diacid-γGlu}-ASGLSTLVLGRLSQELHELQTYPRTETGSQTY-NH2), the Solubility result by setting is: (pH 3.0) “≧200 μM”; (pH 6.5) “≧200 μM”; (pH 7.0) “≧200 μM”; (pH 7.5) “≧200 μM”; (pH 8.0) “≧200 μM”. Under “pH 6.0”, this molecule had a solubility at 18 h of 161 µM (≈ 642 µg/mL).

Usually solubility stands for the concentration that dissolves in the medium under given conditions.
